Values quoted from earlier work, collected in US5348748A, “Pulsatile once-a-day delivery systems for minocycline” (American Cyanamid Company, priority 1993, dated 1994).

Experiments:
[1] = test system: wide range of gram-negative and gram-positive bacteria; details: PDR 43rd Ed.
[2] = taken with food

CN(C)c1ccc(O)c2c1C[C@H]1C[C@H]3[C@H](N(C)C)C(=O)C(C(N)=O)=C(O)[C@@]3(O)C(=O)C1=C2O [minocycline, 7-dimethylamino-6-deoxy-6-demethyltetracycline]
susceptibility of organisms in words [1]: susceptible | absorption in the lower gastrointestinal tract in words: reduced absorption in the lower gastrointestinal tract | half life [2]: 14 to 16 h
